As a reminder, the inhibition is the share of the control response that was lost under treatment. A high value points to a strong effect. For orientation: IC50 means the concentration that inhibits the measured activity by half. What is called melting point is the temperature of the solid-liquid transition. A word on the Ki: it is the equilibrium dissociation constant of an inhibitor or competing ligand from its target. Lower therefore signals tighter binding.

For series [1], the target named is bovine carbonic anhydrase-II (bCA-II) (Bos taurus, UniProt P00921). The series is described as follows: In-vitro bCA-II inhibition, spectrophotometric p-nitrophenyl acetate assay. As to conditions: for IC50 / IC50 ± SEM: NA = Not active. In kind it is biochemical. As to the method:
Each inhibitory well-consisted of 140 μL of HEPES-Tris buffer solution, 20 μL of bCA-II enzyme solution (0.1 mg/mL HEPES-Tris buffer), and 20 μL of test compound in HPLC grade DMSO (maintain 10% of the final concentration). […] Substrate p-nitrophenyl acetate (p-NPA) (0.7 mM) was prepared in HPLC grade methanol and the reaction was started by adding 20 μL to a well in a 96-well-plate. The amount of product formed was measured for 30 min continuously at 1 min intervals at 400 nm in a 96-well-plate using xMARK microplate spectrophotometer, Bio-Rad (USA). The activity of the controlled compound was taken as 100%. All experiments were carried out in triplicates of each used concentration, and results are represented as a mean of the triplicate.

Series [2] has as its target human carbonic anhydrase-II (hCA-II) (Homo sapiens, UniProt P00918). The series is described as follows: In-vitro hCA-II inhibition, spectrophotometric p-nitrophenyl acetate assay. In kind it is biochemical. The note with it: for IC50: NA = Not active; for selectivity hCA-II versus bCA-II: from in-vitro results on bCA-II and hCA-II.
In series [3] the target is bCA-II (Bos taurus, UniProt P00921). Nature of the series: Kinetics study on bCA-II (Lineweaver-Burk, secondary replot, Dixon plot). In kind it is biochemical, bovine. How it is done:
(§1) To investigate the mechanism of action of these compounds, kinetics studies were performed. The kinetics studies were used to discover the type of inhibition and dissociation constant (Ki). […] From the kinetics studies, it was deduced that the compound 4d is a competitive inhibitor for both bCA-II and hCA-II. The Lineweaver-Burk plots were used for determination of the type of inhibition, in which the reciprocal of substrate concentrations was plotted against the reciprocal of the rate of the reaction to monitor the effect of the inhibitor on both Km and Vmax. […] In competitive inhibition, the Km of enzyme increased, while Vmax are not affected.
Figure 2 The mode of inhibition of bCA-II by compound 4d. […] (B) Secondary re-plot of Lineweaver–Burk plot between the slopes of each line on Lineweaver–Burk plot vs. different concentrations of compound 4d. (C) Dixon plot of reciprocal rate of reaction (velocities) vs. different concentrations of compound 4d.
(§2) The Ki values of compounds 4d for both enzymes bCA-II and hCA-II were deduced by secondary replots of Lineweaver-Burk plots by plotting the slope of each line in the Lineweaver-Burk plots against different concentrations of compound 4d (Figures 2B, 3B). The Ki values were confirmed by Dixon plot after plotting the reciprocal of the rate of reaction against different concentrations of compound 4d (Figures 2C, 3C).

For series [4], the target named is hCA-II (Homo sapiens, UniProt P00918). Nature of the series: Kinetics study on hCA-II (Lineweaver-Burk, secondary replot, Dixon plot). In kind it is biochemical. As to the method: as §1
Figure 3 The mode of inhibition of hCA-II by compound 4d. […] (B) Secondary re-plot of Lineweaver–Burk plot between the slopes of each line on Lineweaver–Burk plot vs. different concentrations of compound 4d. (C) Dixon plot of reciprocal rate of reaction (velocities) vs. different concentrations of compound 4d.
as §2

Setting [5] is: substrate p-nitrophenyl acetate.

Chain of bovine carbonic anhydrase-II (bCA-II) (P00921 whole entry): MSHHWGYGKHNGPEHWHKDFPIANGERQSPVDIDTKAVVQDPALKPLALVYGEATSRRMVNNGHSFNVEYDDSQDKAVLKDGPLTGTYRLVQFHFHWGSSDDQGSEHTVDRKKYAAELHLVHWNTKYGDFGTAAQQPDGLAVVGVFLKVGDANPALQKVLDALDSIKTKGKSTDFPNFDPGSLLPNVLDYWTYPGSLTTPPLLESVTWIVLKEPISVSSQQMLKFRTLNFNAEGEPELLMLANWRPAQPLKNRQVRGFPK
Chain of bCA-II (P00921 whole entry): as above

Consider `Nn1c(-c2ccccc2Br)nc2ccccc2c1=O` [Compound 4f, 3-Amino-2-(2-Bromophenyl) Quinazolin-4(3H)-one], for which the melting point lay in the range of 204 to 206 °C. This compound showed an inhibition at 500 µM in series [1] (0.5 mM) of 88.9%. Also, in series [1], the 50% inhibitory concentration (IC50) turned out to be 17.9 ± 0.56 µM. The compound further came in with an inhibition at 500 µM in series [2] (hCA-II, 0.5 mM) of 98.9%. In series [2] (hCA-II), this compound yielded an IC50 of 43.5 ± 1.51 µM.

Consider `COc1ccc(-c2nc3ccccc3c(=O)n2N)cc1` [Compound 4o, 3-Amino-2-(4-Methoxyphenyl) Quinazolin-4(3H)-one], for which the inhibition at 500 µM in series [1] (0.5 mM) turned out to be 19.9%; in series [2] (hCA-II, 0.5 mM), 89.4%. The “IC50 ± SEM” value in series [1] was “inactive”. In series [2], the “selectivity hCA-II versus bCA-II” value is given as “more selective inhibitors for hCA-II”. The compound further gave an IC50 in series [2] (hCA-II) of 22 ± 0.4 µM.

The compound `Nn1c(-c2ccc(Cl)cc2)nc2ccccc2c1=O` [Compound 4n, 3-Amino-2-(4-Chlorophenyl) Quinazolin-4(3H)-one] yielded a melting point of 165 to 166 °C. The compound further registered an inhibition at 500 µM in series [1] (0.5 mM) of 54.2%. This compound returned an IC50 in series [1] of 28.2 ± 0.01 µM. For the same compound, in series [2] (hCA-II, 0.5 mM), the inhibition at 500 µM came out at 24.3%.

Compound `Nn1c(-c2cccc(Cl)c2)nc2ccccc2c1=O` [Compound 4m, 3-Amino-2-(3-Chlorophenyl) Quinazolin-4(3H)-one] returned a melting point of 144 to 145 °C. Also, the inhibition at 500 µM in series [1] (0.5 mM) is 60%. The IC50 in series [1] came out at 8.9 ± 0.31 µM. At 500 µM the inhibition in series [2] (hCA-II, 0.5 mM) was 30.5%.

`Nn1c(-c2ccc(F)cc2)nc2ccccc2c1=O` [Compound 4k, 3-Amino-2-(4-Fluorophenyl) Quinazolin-4(3H)-one]: the melting point was in the range of 176 to 178 °C. Besides, testing at 500 µM in series [1] (0.5 mM) gave an inhibition of 76.3%. Besides, the IC50 in series [1] turned out to be 18.3 ± 0.51 µM. In series [2] (hCA-II, 0.5 mM), the inhibition at 500 µM was 36.2%.

“3-Amino-2-(Napthalen-1-yl) Quinazolin-4(3H)-one [Compound 4b]”: the “% Inhibition (0.5 mM)” value in series [1] (0.5 mM) is 83.6%; in series [2] (hCA-II, 0.5 mM), 38.1%. This compound came in with an IC50 in series [1] of 67.3 ± 0.42 µM.

`COc1cc(-c2nc3ccccc3c(=O)n2N)cc(OC)c1OC` [Compound 4p, 3-Amino-2-(3,4,5-Trimethoxyphenyl) Quinazolin-4(3H)-one]: the inhibition at 500 µM in series [1] (0.5 mM) was determined as 87.3%; in series [2] (hCA-II, 0.5 mM) it was 27.4%. The same compound had a concentration for half-maximal inhibition (IC50) in series [1] of 26.8 ± 0.23 µM.

`Nn1c(-c2ccc(Br)cc2)nc2ccccc2c1=O` [Compound 4g, 3-Amino-2-(4-Bromophenyl) Quinazolin-4(3H)-one] had a melting point of 184 to 185 °C. This compound also registered an inhibition at 500 µM in series [1] (0.5 mM) of 85.3%. In addition, in series [1], the IC50 worked out at 33.6 ± 0.22 µM. Also, the “selectivity hCA-II versus bCA-II” value in series [2] was “more selective inhibitors for hCA-II”. For the same compound, in series [2] (hCA-II, 0.5 mM), 500 µM produced 85.3% inhibition. The 50% inhibitory concentration (IC50) in series [2] (hCA-II) was found to be 14 ± 0.6 µM.

In the case of `Nn1c(-c2cccc(F)c2)nc2ccccc2c1=O` [Compound 4j, 3-Amino-2-(3-Fluorophenyl) Quinazolin-4(3H)-one], the melting point fell in the range of 164 to 165 °C. The inhibition at 500 µM in series [1] (0.5 mM) came to 78.6%. The 50% inhibitory concentration (IC50) in series [1] amounted to 46.6 ± 0.39 µM. For the same compound, the inhibition at 500 µM in series [2] (hCA-II, 0.5 mM) is 28.1%.

With `Cc1ccc(-c2nc3ccccc3c(=O)n2N)cc1` [Compound 4h, 3-Amino-2-(4-Methylphenyl) Quinazolin-4(3H)-one], the melting point lay in the range of 294 to 296 °C. The same compound came in with an inhibition at 500 µM in series [1] (0.5 mM) of 92.4%. For the same compound, half-maximal inhibition in series [1] (IC50) required 38 ± 0.62 µM. The same compound yielded an inhibition at 500 µM in series [2] (hCA-II, 0.5 mM) of 92.4%. The compound further came in with an IC50 in series [2] (hCA-II) of 53 ± 2.12 µM.

Regarding `Nn1c(-c2ccccc2F)nc2ccccc2c1=O` [Compound 4i, 3-Amino-2-(2-Fluorophenyl) Quinazolin-4(3H)-one], the melting point was in the range of 169 to 170 °C. In series [1] (0.5 mM), this compound registered an inhibition at 500 µM of 17.6%. Further, in series [1], the “IC50 ± SEM” value is “inactive”. Further, 500 µM produced 27.8% inhibition in series [2] (hCA-II, 0.5 mM).

In turn, `Nn1c(-c2ccccc2[N+](=O)[O-])nc2ccccc2c1=O` [Compound 4c, 3-Amino-2-(2-Nitrophenyl) Quinazolin-4(3H)-one] showed a melting point of 180 to 182 °C. Further, testing at 500 µM in series [1] (0.5 mM) gave an inhibition of 80.5%. In series [1], this compound registered an IC50 of 11.7 ± 0.36 µM. Further, the inhibition at 500 µM in series [2] (hCA-II, 0.5 mM) amounted to 88.5%. The compound also gave an IC50 in series [2] (hCA-II) of 21.1 ± 1.36 µM.

As to `Nn1c(-c2ccc([N+](=O)[O-])cc2)nc2ccccc2c1=O` [Compound 4e, 3-Amino-2-(4-nitrophenyl) quinazolin-4(3H)-one], the melting point lay in the range of 224 to 225 °C. The compound also showed an inhibition at 500 µM in series [1] (0.5 mM) of 80.7%. This compound registered a half-maximal inhibitory concentration (IC50) in series [1] of 9.1 ± 0.21 µM. The compound further displayed an inhibition at 500 µM in series [2] (hCA-II, 0.5 mM) of 92.7%. This compound yielded a half-maximal inhibitory concentration (IC50) in series [2] (hCA-II) of 39.9 ± 2.21 µM.

`Nn1c(-c2cccc([N+](=O)[O-])c2)nc2ccccc2c1=O` [Compound 4d, 3-Amino-2-(3-Nitrophenyl) Quinazolin-4(3H)-one] yielded a melting point of 206 to 208 °C. The compound further showed an inhibition at 500 µM in series [1] (0.5 mM) of 92.9%. Also, the 50% inhibitory concentration (IC50) in series [1] was 19.7 ± 1.02 µM. The mode of inhibition entry in series [3] (Lineweaver-Burk plot) is “competitive”. In addition, affinity in series [3] (setting [5]) was put at a Ki of 13 ± 0.013 µM. For the same compound, the mode of inhibition entry in series [4] (Lineweaver-Burk plot) is “competitive”. In addition, in series [4] (setting [5]), the affinity corresponds to a Ki of 14.25 ± 0.017 µM. In series [2] (hCA-II, 0.5 mM), this compound returned an inhibition at 500 µM of 94.2%. Further, the IC50 in series [2] (hCA-II) amounted to 21.5 ± 0.52 µM.

In the case of `Nn1c(-c2ccccc2)nc2ccccc2c1=O` [Compound 4a, 3-Amino-2-Phenylquinazolin-4(3H)-one], the melting point was in the range of 200 to 202 °C. Also, the inhibition at 500 µM in series [1] (0.5 mM) stood at 75.2%. For the same compound, the IC50 in series [1] stood at 53.6 ± 0.85 µM. Further, testing at 500 µM in series [2] (hCA-II, 0.5 mM) gave an inhibition of 75.2%. Besides, in series [2] (hCA-II), the 50% inhibitory concentration (IC50) is 59.6 ± 1.03 µM.

`Nn1c(-c2ccccc2Cl)nc2ccccc2c1=O` [Compound 4l, 3-Amino-2-(2-Chlorophenyl) Quinazolin-4(3H)-one]: the melting point lay within 160 to 162 °C. In series [1] (0.5 mM), the inhibition at 500 µM turned out to be 78.2%. Moreover, the half-maximal inhibitory concentration (IC50) in series [1] is 10.7 ± 0.82 µM. Also, at 500 µM the inhibition in series [2] (hCA-II, 0.5 mM) was 28.7%.
